Blank lines part the entries; values can stand above or below the molecule they belong to. Activity calls are given as the source filed them. The calls are words filed in the database; no cut-off is given here.
Tests used:
M21 [1] = experiment: Induction DNA DSBs in human M21 cells assessed as increase in gamma H2AX foci at 10 uM incubated for 24 hrs by DAPI staining based immunocytochemistry; type: cell-based
HT-29 = experiment: Antiproliferative activity against human HT-29 cells assessed as growth inhibition incubated for 48 hrs by sulforhodamine B assay; type: functional, cell-based; conditions: HT-29, 48 h
MCF7 = experiment: Antiproliferative activity against human MCF7 cells assessed as growth inhibition incubated for 48 hrs by sulforhodamine B assay; type: functional, cell-based; conditions: MCF7, 48 h
M21 [2] = experiment: Cell cycle arrest in human M21 cells assessed as accumulation at subG1 phase at 10 uM after 24 hrs by DAPI staining-based flow cytometry (reference value: 1.5%); type: functional
M21 [3] = experiment: Cell cycle arrest in human M21 cells assessed as accumulation at S phase at 10 uM after 24 hrs by DAPI staining-based flow cytometry (reference value: 17.4%); type: functional
M21 [4] = experiment: Cell cycle arrest in human M21 cells assessed as accumulation at G2/M phase at 10 uM after 24 hrs by DAPI staining-based flow cytometry (reference value: 16%); type: functional
[5] = Antiproliferative activity against human HT1080 cells assessed as growth inhibition incubated for 48 hrs by sulforhodamine B assay; type: functional, cell-based, HT-1080; conditions: Homo sapiens, HT-1080, 48 h; read-out: IC50
M21 [6] = experiment: Cell cycle arrest in human M21 cells assessed as accumulation at G0/G1 phase at 10 uM after 24 hrs by DAPI staining-based flow cytometry (reference value: 65.1%); type: functional
M21 [7] = experiment: Antiproliferative activity against human M21 cells assessed as growth inhibition incubated for 48 hrs by sulforhodamine B assay; type: functional, cell-based; conditions: M21, 48 h
M21 [8] = experiment: Cell cycle arrest in human M21 cells assessed as accumulation at G2/M phase at 3.3 uM after 24 hrs by DAPI staining-based flow cytometry (reference value: 16%); type: functional
M21 [9] = experiment: Cell cycle arrest in human M21 cells assessed as accumulation at subG1 phase at 3.3 uM after 24 hrs by DAPI staining-based flow cytometry (reference value: 1.5%); type: functional
M21 [10] = experiment: Cell cycle arrest in human M21 cells assessed as accumulation at S phase at 3.3 uM after 24 hrs by DAPI staining-based flow cytometry (reference value: 17.4%); type: functional
M21 [11] = experiment: Induction DNA DSBs in human M21 cells assessed as increase in gamma H2AX foci at 3.3 uM incubated for 24 hrs by DAPI staining based immunocytochemistry; type: functional, cell-based
M21 [12] = experiment: Cell cycle arrest in human M21 cells assessed as accumulation at G0/G1 phase at 3.3 uM after 24 hrs by DAPI staining-based flow cytometry (reference value: 65.1%); type: functional
M21 [13] = experiment: Cell cycle arrest in human M21 cells assessed as accumulation at S phase at 5.1 uM after 24 hrs by DAPI staining-based flow cytometry (reference value: 17.4%); type: functional
M21 [14] = experiment: Cell cycle arrest in human M21 cells assessed as accumulation at G2/M phase at 5.1 uM after 24 hrs by DAPI staining-based flow cytometry (reference value: 16%); type: functional
M21 [15] = experiment: Cell cycle arrest in human M21 cells assessed as accumulation at G0/G1 phase at 5.1 uM after 24 hrs by DAPI staining-based flow cytometry (reference value: 65.1%); type: functional
M21 [16] = experiment: Cell cycle arrest in human M21 cells assessed as accumulation at subG1 phase at 5.1 uM after 24 hrs by DAPI staining-based flow cytometry (reference value: 1.5%); type: functional
M21 [17] = experiment: Cell cycle arrest in human M21 cells assessed as accumulation at G2/M phase at 16 uM after 24 hrs by DAPI staining-based flow cytometry (reference value: 16%); type: functional
M21 [18] = experiment: Cell cycle arrest in human M21 cells assessed as accumulation at S phase at 16 uM after 24 hrs by DAPI staining-based flow cytometry (reference value: 17.4%); type: functional
M21 [19] = experiment: Cell cycle arrest in human M21 cells assessed as accumulation at subG1 phase at 16 uM after 24 hrs by DAPI staining-based flow cytometry (reference value: 1.5%); type: functional
M21 [20] = experiment: Cell cycle arrest in human M21 cells assessed as accumulation at G0/G1 phase at 16 uM after 24 hrs by DAPI staining-based flow cytometry (reference value: 65.1%); type: functional
M21 [21] = experiment: Cell cycle arrest in human M21 cells assessed as accumulation at G0/G1 phase at 48 uM after 24 hrs by DAPI staining-based flow cytometry (reference value: 65.1%); type: functional
M21 [22] = experiment: Cell cycle arrest in human M21 cells assessed as accumulation at subG1 phase at 48 uM after 24 hrs by DAPI staining-based flow cytometry (reference value: 1.5%); type: functional
M21 [23] = experiment: Cell cycle arrest in human M21 cells assessed as accumulation at G2/M phase at 48 uM after 24 hrs by DAPI staining-based flow cytometry (reference value: 16%); type: functional
M21 [24] = experiment: Cell cycle arrest in human M21 cells assessed as accumulation at S phase at 48 uM after 24 hrs by DAPI staining-based flow cytometry (reference value: 17.4%); type: functional
M21 [25] = experiment: Cell cycle arrest in human M21 cells assessed as accumulation at S phase at 3.9 uM after 24 hrs by DAPI staining-based flow cytometry (reference value: 17.4%); type: functional
M21 [26] = experiment: Cell cycle arrest in human M21 cells assessed as accumulation at subG1 phase at 3.9 uM after 24 hrs by DAPI staining-based flow cytometry (reference value: 1.5%); type: functional
M21 [27] = experiment: Cell cycle arrest in human M21 cells assessed as accumulation at G2/M phase at 3.9 uM after 24 hrs by DAPI staining-based flow cytometry (reference value: 16%); type: functional
M21 [28] = experiment: Cell cycle arrest in human M21 cells assessed as accumulation at G0/G1 phase at 3.9 uM after 24 hrs by DAPI staining-based flow cytometry (reference value: 65.1%); type: functional
M21 [29] = experiment: Induction DNA DSBs in human M21 cells assessed as increase in gamma H2AX foci at 3.9 uM incubated for 24 hrs by DAPI staining based immunocytochemistry; type: cell-based

IC50 (HT-29): 3.5 µM
IC50 (MCF7): 4.2 µM
Structure (SMILES): O=C(NCCCl)Nc1ccc(S(=O)(=O)Oc2ccccc2Cl)cc1
Activity (M21 [1]): Active
Activity (M21 [2]): 1.9%
Activity (M21 [3]): 33.3%
Activity (M21 [4]): 21%
IC50 [5]: 1.1 µM
Activity (M21 [6]): 43.8%
IC50 (M21 [7]): 2.1 µM

IC50 (HT-29): 2.3 µM
IC50 (MCF7): 3 µM
Structure (SMILES): Cc1cc(C)c(OS(=O)(=O)c2ccc(NC(=O)NCCCl)cc2)cc1C
Activity (M21 [8]): 27%
Activity (M21 [9]): 1.7%
Activity (M21 [10]): 43.8%
IC50 [5]: 1 µM
IC50 (M21 [7]): 1.7 µM
Activity (M21 [11]): Active
Activity (M21 [12]): 27.5%

IC50 (HT-29): 1.2 µM
IC50 (MCF7): 1.2 µM
Structure (SMILES): O=C(NCCCl)Nc1ccc(S(=O)(=O)Oc2cc(Cl)c(Cl)cc2Cl)cc1
Activity (M21 [13]): 8.6%
Activity (M21 [14]): 82.6%
IC50 [5]: 1.4 µM
Activity (M21 [15]): 3.3%
IC50 (M21 [7]): 1 µM
Activity (M21 [16]): 5.5%

IC50 (HT-29): 4.1 µM
IC50 (MCF7): 4.8 µM
Structure (SMILES): O=C(NCCCl)Nc1ccc(S(=O)(=O)Oc2c(F)cccc2F)cc1
Activity (M21 [17]): 46.8%
Activity (M21 [18]): 15.1%
Activity (M21 [19]): 8.7%
Activity (M21 [20]): 29.4%
IC50 [5]: 3.2 µM
IC50 (M21 [7]): 3.2 µM

IC50 (HT-29): 9.6 µM
IC50 (MCF7): 9.3 µM
Structure (SMILES): O=C(NCCCl)Nc1ccc(S(=O)(=O)Oc2ccc(F)cc2F)cc1
Activity (M21 [21]): 13.4%
IC50 [5]: 9.4 µM
Activity (M21 [22]): 5.2%
IC50 (M21 [7]): 9.6 µM
Activity (M21 [23]): 71.4%
Activity (M21 [24]): 10%

IC50 (HT-29): 2.8 µM
IC50 (MCF7): 3.7 µM
Structure (SMILES): Cc1cccc(C)c1OS(=O)(=O)c1ccc(NC(=O)NCCCl)cc1
Activity (M21 [25]): 47.1%
Activity (M21 [26]): 1.6%
Activity (M21 [27]): 20.3%
IC50 [5]: 1.1 µM
Activity (M21 [28]): 31%
IC50 (M21 [7]): 2 µM
Activity (M21 [29]): Active

Source: ChEMBL document CHEMBL3632622, “Synthesis and biological evaluation of novel N-phenyl ureidobenzenesulfonate derivatives as potential anticancer agents. Part 2. Modulation of the ring B” (Eur J Med Chem, 2015)
